Source: patent US20140187423A1, “Fungicidal substituted 1--1H-[1,2,4]triazole compounds” (BASF SE, priority 2011, published 2014)

Legend:
Phakopsora pachyrhizi = assay: Green house G1: protective control of soy bean rust on soy beans caused by Phakopsora pachyrhizi (Phakpa P2); assay type: in vivo; settings: soy bean seedlings sprayed 2 days before inoculation, % diseased leaf area, untreated control 70
Experimental: The spray solutions were prepared in several steps:
The stock solution were prepared: a mixture of acetone and/or dimethylsulfoxide and the wetting agent/emulsifier Wettol, which is based on ethoxylated alkylphenoles, in a relation (volume) solvent-emulsifier of 99 to 1 was added to 25 mg of the compound to give a total of 5 ml. Water was then added to total volume of 100 ml. This stock solution was diluted with the described solvent-emulsifier-water mixture to the given concentration.
G1. Protective control of soy bean rust on soy beans caused by Phakopsora pachyrhizi (Phakpa P2)
Leaves of pot-grown soy bean seedlings were sprayed to run-off with an aqueous suspension, containing the concentration of active ingredient or their mixture as described below. The plants were allowed to air-dry. The trial plants were cultivated for 2 days in a greenhouse chamber at 23-27° C. and a relative humidity between 60 and 80%. Then the plants were inoculated with spores of Phakopsora pachyrhizi. To ensure the success the artificial inoculation, the plants were transferred to a humid chamber with a relative humidity of about 95% and 20 to 24° C. for 24 h. The trial plants were cultivated for fourteen days in a greenhouse chamber at 23-27° C. and a relative humidity between 60 and 80%. The extent of fungal attack on the leaves was visually assessed as % diseased leaf area.

Septoria tritici = assay: Green house G2: preventative control of leaf blotch on wheat caused by Septoria tritici (Septtr P7); assay type: in vivo; settings: wheat seedlings sprayed 7 days before inoculation, % diseased leaf area, untreated control 70
Experimental: The spray solutions were prepared in several steps: The stock solution were prepared: a mixture of acetone and/or dimethylsulfoxide and the wetting agent/emulsifier Wettol, which is based on ethoxylated alkylphenoles, in a relation (volume) solvent-emulsifier of 99 to 1 was added to 25 mg of the compound to give a total of 5 ml. Water was then added to total volume of 100 ml. This stock solution was diluted with the described solvent-emulsifier-water mixture to the given concentration. G2. Preventative control of leaf blotch on wheat caused by Septoria tritici (Septtr P7) Leaves of pot-grown wheat seedling were sprayed to run-off with an aqueous suspension of the active compound or their mixture, prepared as described. The plants were allowed to air-dry. Seven days later the plants were inoculated with an aqueous spore suspension of Septoria tritici. Then the trial plants were immediately transferred to a humid chamber at 18-22° C. and a relative humidity close to 100%. After 4 days the plants were transferred to a chamber with 18-22° C. and a relative humidity close to 70%. After 4 weeks the extent of fungal attack on the leaves was visually assessed as % diseased leaf area.

## CCOC(Cn1cncn1)c1ccc(Oc2ccc(Cl)cc2)cc1Cl (centres unmarked) [prior art compound]
Phakopsora pachyrhizi
  Disease (%) at 16 ppm Phakpa P2: 70%
Septoria tritici
  Disease (%) at 16 ppm Septtr P7: 50%
